Measurements taken from patent US20220071205A1, “HERBICIDE” (UPL LTD, priority 2018, published 2022).

Legend:
winter wheat [1] = test: Normalised plant count of winter wheat, field trials (Example 1, FIG. 1); assay type: in vivo; settings: average of 6 field trials
Experimental: A herbicide composition consisting of an SC of 450 g/L napropamide-m was applied to winter wheat either pre- or post-emergence. The normalised plant count was determined as a percentage of the plant count observed in the absence of the herbicide. Control experiments were conducted with the conventional herbicide Trooper, as defined above.
Results from an average of 6 field trials (napropamide; Trooper low dose: 4 sites; Trooper high dose: 2 sites) with herbicide application in October are shown in FIG. 1. […] Plant survival after emergence was 100% of the survival rate in the absence of napropamide.

winter wheat [2] = test: Normalised plant growth of winter wheat at another site (Example 1, FIG. 2); assay type: in vivo; settings: pre-em
Experimental: Similar experiments were carried out at another site where the effect of seed depth was to be determined, see Example 3 below. Control experiments were conducted with the conventional herbicides Trooper and Xerton, as defined above.

SMILES: CCN(CC)C(=O)C(C)Oc1cccc2ccccc12 (stereo not drawn) [napropamide, N,N-diethyl-2-(α-naphthoxy) propionamide]
- Plant survival after emergence (winter wheat [1]; % of the survival rate in the absence of napropamide): 100%
- effect on the growth of winter wheat (winter wheat [1]; herbicide application in October): no detectable effect
- Plant survival after emergence (winter wheat [2]): comparable with that following application of conventional herbicides Trooper/Malibu and Xerton
- effect on the growth of winter wheat (winter wheat [2]): very low effect
